# Measured values taken from ChEMBL document CHEMBL4837185, “Emerimicins V-X, 15-Residue Peptaibols Discovered from an Acremonium sp. through Integrated Genomic and Chemical Approaches” (J Nat Prod, 2021).
# Legend:
# [1] = system: Staphylococcus aureus; test: Antibacterial activity against methicillin-resistant Staphylococcus aureus ATCC 1556 assessed as inhibition of bacterial growth measured after 16 to 20 hrs by CLSI broth microdilution method; type: functional; details: time 16-20 hrs
# [2] = system: Enterococcus faecalis; test: Antibacterial activity against Enterococcus faecalis ATCC 19433 assessed as inhibition of bacterial growth measured after 16 to 20 hrs by CLSI broth microdilution method; type: functional; details: time 16-20 hrs
# [3] = system: Enterococcus faecalis; test: Antibacterial activity against vancomycin-resistant Enterococcus faecalis ATCC 51299 assessed as inhibition of bacterial growth measured after 16 to 20 hrs by CLSI broth microdilution method; type: functional; details: time 16-20 hrs
# [4] = system: Pseudomonas aeruginosa; test: Antibacterial activity against Pseudomonas aeruginosa ATCC 27853 assessed as inhibition of bacterial growth measured after 16 to 20 hrs by CLSI broth microdilution method; type: functional; details: time 16-20 hrs
# [5] = Toxicity in zebra fish embryo assessed as mortality at 100 ug/ml incubated for 48 hrs; parameters: species or system Danio rerio; details: zebrafish, dose 100 µg/ml
# [6] = Toxicity in zebra fish embryo assessed as survival rate at 100 ug/ml incubated for 48 hrs; parameters: species or system Danio rerio; details: zebrafish, zebrafish embryos, at 100 µg/mL
# [7] = Toxicity in zebra fish embryo assessed as mortality at 33 ug/ml incubated for 48 hrs; parameters: species or system Danio rerio; details: zebrafish, dose 33 µg/ml
Compound,MIC [1] [µg/mL],MIC [2] [µg/mL],MIC [3] [µg/mL],MIC [4] [µg/mL],Activity [5],"survival at 48 h, 100 ug/ml [6] [%]",Activity [7]
CC[C@@](C)(NC(=O)[C@H](CC(C)C)NC(=O)CNC(=O)C(C)(C)NC(=O)C(C)(C)NC(=O)C(C)(C)NC(=O)C(C)(C)NC(=O)[C@H](CC(C)C)NC(C)=O)C(=O)NC(C)(C)C(=O)N1C[C@H](O)C[C@H]1C(=O)N[C@@H](CCC(N)=O)C(=O)N[C@](C)(CC)C(=O)N1C[C@H](O)C[C@H]1C(=O)NC(C)(C)C(=O)N[C@H](CO)Cc1ccccc1,> 100,> 100,> 100,> 100,Toxic,–,–
GENTAMICIN,4,8,4,2,–,–,–
CC[C@@](C)(NC(=O)[C@H](CC(C)C)NC(=O)CNC(=O)C(C)(C)NC(=O)C(C)(C)NC(=O)C(C)(C)NC(=O)C(C)(C)NC(=O)[C@@H](NC(C)=O)C(C)C)C(=O)NC(C)(C)C(=O)N1C[C@H](O)C[C@H]1C(=O)N[C@@H](CCC(N)=O)C(=O)N[C@](C)(CC)C(=O)N1C[C@H](O)C[C@H]1C(=O)NC(C)(C)C(=O)N[C@H](CO)Cc1ccccc1,> 100,> 100,> 100,> 100,–,70,–
CC[C@@](C)(NC(=O)[C@H](CC(C)C)NC(=O)CNC(=O)[C@@](C)(CC)NC(=O)C(C)(C)NC(=O)C(C)(C)NC(=O)C(C)(C)NC(=O)[C@@H](NC(C)=O)C(C)C)C(=O)NC(C)(C)C(=O)N1C[C@H](O)C[C@H]1C(=O)N[C@@H](CCC(N)=O)C(=O)N[C@](C)(CC)C(=O)N1C[C@H](O)C[C@H]1C(=O)NC(C)(C)C(=O)N[C@H](CO)Cc1ccccc1,> 100,> 100,> 100,> 100,–,75,–
CC[C@@](C)(NC(=O)[C@H](CC(C)C)NC(=O)CNC(=O)[C@@](C)(CC)NC(=O)C(C)(C)NC(=O)C(C)(C)NC(=O)C(C)(C)NC(=O)[C@H](Cc1ccccc1)NC(C)=O)C(=O)NC(C)(C)C(=O)N1C[C@H](O)C[C@H]1C(=O)N[C@@H](CCC(N)=O)C(=O)N[C@](C)(CC)C(=O)N1C[C@H](O)C[C@H]1C(=O)NC(C)(C)C(=O)N[C@H](CO)Cc1ccccc1,32,64,64,> 100,–,–,Toxic
CC[C@@](C)(NC(=O)[C@H](CC(C)C)NC(=O)CNC(=O)C(C)(C)NC(=O)C(C)(C)NC(=O)C(C)(C)NC(=O)C(C)(C)NC(=O)[C@H](Cc1ccccc1)NC(C)=O)C(=O)NC(C)(C)C(=O)N1C[C@H](O)C[C@H]1C(=O)N[C@@H](CCC(N)=O)C(=O)N[C@](C)(CC)C(=O)N1C[C@H](O)C[C@H]1C(=O)NC(C)(C)C(=O)N[C@H](CO)Cc1ccccc1,64,> 100,> 100,> 100,–,–,Toxic
CC(=O)O[C@H]1C[C@@]2(C)[C@@H](CC[C@H]3[C@@]4(C)C=CC(=O)[C@@H](C)[C@@H]4[C@H](OC(C)=O)C(=O)[C@@]32C)/C1=C(\CCC=C(C)C)C(=O)O [HELVOLIC ACID],4,16,8,> 100,–,–,–
CC[C@@](C)(NC(=O)[C@H](CC(C)C)NC(=O)CNC(=O)[C@@](C)(CC)NC(=O)C(C)(C)NC(=O)C(C)(C)NC(=O)C(C)(C)NC(=O)[C@H](CC(C)C)NC(C)=O)C(=O)NC(C)(C)C(=O)N1C[C@H](O)C[C@H]1C(=O)N[C@@H](CCC(N)=O)C(=O)N[C@](C)(CC)C(=O)N1C[C@H](O)C[C@H]1C(=O)NC(C)(C)C(=O)N[C@H](CO)Cc1ccccc1,> 100,> 100,> 100,> 100,Toxic,–,–
